Results as given in PubChem BioAssay AID1159564 (GlaxoSmithKline (GSK), 2015).
The source made the active and inactive calls. No rule for the calls is given here.

Test system: L. donovani-infected THP-1 macrophages, intracellular amastigote imaging
Experiment: intracellular L. donovani amastigote inhibition, imaging, THP-1 host macrophages, host toxicity (AID 1159564)
[1] = measured here: THP-1 host cell toxicity
[2] = measured here: amastigotes per macrophage

| Compound | IC50 | IC50 [1] | IC50 [2] |
| --- | --- | --- | --- |
| O=C1c2cnc(N3CCCC3)nc2CN1c1ccc2c(c1)OCO2 | 10 µM | > 50 µM | 6.3 µM |
| Cc1nn2c(NCCCO)c3c(nc2c1-c1cccs1)CCC3 | > 50 µM (inactive) | > 50 µM | > 50 µM |
| Cc1cc2nc(N3CC[C@H]3C(N)=O)nc(Nc3cc(C4CC4)[nH]n3)c2s1 | 2 µM | 0.79 µM | 1.3 µM |
| c1ccc(-c2nc(NC3CCCCC3)cc(C3CC3)n2)nc1 | 4 µM | 20 µM | 3.2 µM |
| CCOc1ccc(NC(=O)c2ccc(NC(=O)NC3CCCCC3)cc2)cc1 | 7.9 µM | 4 µM | 6.3 µM |
| NS(=O)(=O)c1ccc(Nc2nccc(-c3cnn4ncccc34)n2)cc1 | 2 µM | 0.25 µM | 1 µM |
| O=C(CN(c1cccc(C(F)(F)F)c1)S(=O)(=O)c1ccc(Cl)cc1)NCc1ccc(F)c(F)c1 | > 50 µM (inactive) | 20 µM | > 50 µM |
| FC(F)(F)c1cc(C2CCCN(Cc3c[nH]c4ccccc34)C2)nc2ncnn12 (stereo not drawn) | > 50 µM (inactive) | 16 µM | > 50 µM |
| CC(=O)Nc1ccc(-c2cnc(N)c(-c3nc4ccc(F)cc4[nH]3)c2)cc1 | 1 µM | 7.9 µM | 0.5 µM |
| NC(=O)c1ccccc1Nc1nc(NC2CCCCC2)nc2[nH]ccc12 | 13 µM | 10 µM | 13 µM |
| C=CCOCC1Cn2nc([N+](=O)[O-])nc2O1 (stereo not drawn) | > 50 µM (inactive) | > 50 µM | > 50 µM |
| COCCn1c(-c2ccccc2)cnc1NCc1ccccc1OC | 6.3 µM | 50 µM | 6.3 µM |
| N#Cc1nc(C=Cc2ccccc2)oc1NCc1cccnc1 | 40 µM | 32 µM | 32 µM |
| CCOC(=O)c1noc(N)c1-c1ccccc1 | > 50 µM (inactive) | > 50 µM | > 50 µM |
| CN(C)CCN(C)Cc1ccc(Cl)cc1NS(=O)(=O)c1ccc(Cl)c(Cl)c1 | 6.3 µM | 32 µM | 4 µM |
| CCc1cccc(CC)c1-n1c(SCC(=O)N2CC(=O)Nc3ccccc32)nnc1-c1cccnc1 | > 50 µM (inactive) | > 50 µM | > 50 µM |
| COc1ccc([N+](=O)[O-])cc1NC(=O)Nc1cccc(Cl)c1 | > 50 µM (inactive) | 50 µM | > 50 µM |
| CCNc1cc(-c2ccccn2)nc(Nc2ccccc2)n1 | 0.79 µM | 20 µM | 0.63 µM |
| CCOc1ccc(N(C)S(=O)(=O)c2ccc3[nH]cc(C(=O)NC4CCCC4)c(=O)c3c2)cc1 | 32 µM | 25 µM | 32 µM |
| COc1ccc(S(=O)(=O)Nc2ccc(CN3CCN(C(=O)c4cccc(C#N)c4)CC3)cc2)cc1 | > 50 µM (inactive) | > 50 µM | > 50 µM |
| O=c1oc2ccccc2n1C1CCN(Cc2ccccc2-c2cccnc2)CC1 | > 50 µM (inactive) | 13 µM | 6.3 µM |
| O=C(c1ccc(Cl)cc1)c1ccc(OC(=O)N2CCOCC2)cc1 | 5 µM | > 50 µM | 2 µM |
| CC(C)(C)C(Cn1ccnc1)NC(=O)c1ccc2nc(C3CC3)oc2c1 (stereo not drawn) | > 50 µM (inactive) | 16 µM | > 50 µM |
| COc1ccc([N+](=O)[O-])cc1NC(=O)c1cc(Cl)ccc1O | 2 µM | 10 µM | 1.6 µM |
| CCOc1ccc(CN(C)Cc2nc(N)nc(Nc3ccc(C)cc3)n2)cc1 | 4 µM | 40 µM | 3.2 µM |
| COc1ccc(C(C)N(C)c2ncc3c(N)nc(N)nc3n2)cc1F (stereo not drawn) | 16 µM | > 50 µM | 13 µM |
